Measured values from patent publication US4444690A, “Technetium chelates” (priority 1982, dated 1984).
“Also recorded” adds a separate entry of the source. Read-outs that look alike come from different tables or passages of the source.

What was measured:
[1] = mice, mean of 6
Protocol: The time course of organ distribution was determined in groups of six Hal Cr female albino mice. They were injected with 0.10 ml (0.5 uCi) of the preparation. For comparison purposes, 0.2 uCi OIH was added to each injection. The mice were placed in metabolic cages for the collection of excreted urine. At indicated intervals after injection, the urethra was ligated and the mice killed with chloroform vapor.

[2] = Organ biodistribution time course of Tc-CO2-DADS components in mice (Table 1); type: in vivo, Hal Cr female albino mice; conditions: mice; for Blood / Intestines / Kidneys / Liver / Stomach / Urine: mean of 6, listed as Tc--CO2 DADS--B
Protocol: The time course of organ distribution was determined in groups of six Hal Cr female albino mice. They were injected with 0.10 ml (0.5 uCi) of the preparation. For comparison purposes, 0.2 uCi OIH was added to each injection. The mice were placed in metabolic cages for the collection of excreted urine. At indicated intervals after injection, the urethra was ligated and the mice killed with chloroform vapor. The organs were removed and counted in a dual channel counter with correction for I-131 crossover into the Tc-99m channel.

[3] = Blood disappearance rates in rats (FIG. 3); type: in vivo, male Sprague-Dawley rats; conditions: rats, FIG. 3
Excerpt: These determinations were made in male Sprague-Dawley rats.

[4] = rabbits, FIG. 4
Protocol: Organ biodistribution and acute toxicity studies were carried out in mice, blood disappearance and bile appearance rates were determined by sampling of bood or bile in rats, and renal excretion rates of the two Tc-2,3-bis(mercaptoacetamido)propanoic acid components, Tc-DTPA, and OIH were determined in rabbits because of greater ease of urine sampling. The HPLC-purified Tc-2,3-bis(mercaptoacetamido)propanoate components were used directly except for dilution as necessary. In general HPLC collected volumes were 1 to 1.5 ml and were not diluted for rabbit studies, were diluted 2- to 10-fold for rat studies and were diluted about 20-fold for mouse studies. In most cases determinations were made with simultaneous administration of OIH.
The rate of renal excretion was measured in New Zealand albino male rabbits. They were anesthetized with ketamine and xylazine and placed on a gamma camera provided with digital storage. After injection of 0.5 to 1 mCi of the Tc-99m complex containing 0.5μCi of OIH, images were collected on tape for 45 minutes. At 35 minutes after injection, urine was expelled from the bladder and the percentage of injected dose contained in the expelled urine was determined. Accumulation of bladder radioactivity was monitored by placing a region of interest over the bladder. The drop in the radioactivity in the bladder after expelling the urine sample (50-80% of the bladder radioactivity) allowed calibration of the bladder time-activity curve in terms of percent injected dose.

plasma proteins = test: Plasma protein binding, ultrafiltration; type: in vitro ADME; conditions: plasma
Protocol: Studies of protein binding were carried out in plasma using an ultrafiltration method described at J.Nucl.Med. 22, 258-263, 1981.

[5] = 120 min post injection, 120 min

SMILES	Blood ([1]; 10 min post injection)	Intestines ([1]; 10 min post injection)	Kidneys ([1]; 10 min post injection)	Liver ([1]; 10 min post injection)	Stomach ([1]; 10 min post injection)	Urine ([1]; 10 min post injection, 10 min)	Blood ([1]; 120 min post injection)	Intestines ([1]; 120 min post injection)	Kidneys ([1]; 120 min post injection)	Liver ([1]; 120 min post injection)	Stomach ([1]; 120 min post injection)	Urine [1, 5]	other results
O=C(O)C1C(C(=O)O)[N]2C(=O)C[S][99Tc-]23(=[O])[S]CC(=O)[N]13 (single isomer, unassigned) [Tc--99m--2,3--(MERCAPTOACETAMIDO) SUCCINATE Component B] [Tc-99m chelate of 2,3-bis(mercaptoacetamido)succinic acid]	16.21	2.88	3.43	7.06	0.53	19.32	0.87	8.85	0.65	2.33	0.49	66.92	–
O=C(O)C1C[N]2C(=O)C[S][99Tc-]23(=[O])[S]CC(=O)[N]13 (single isomer, unassigned) [Tc-2,3-bis(mercaptoacetamido)propanoate-B] [Tc-99m-2,3-bis(mercaptoacetamido)propanoate]	–	–	–	–	–	–	–	–	–	–	–	–	biliary excretion in words [2]: Negligible biliary excretion; Blood ([2]; 10 min post injection): 3.64 percent injected dose; Intestines ([2]; 10 min post injection): 1.00 percent injected dose; Kidneys ([2]; 10 min post injection): 2.87 percent injected dose; Liver ([2]; 10 min post injection): 14.83 percent injected dose; Stomach ([2]; 10 min post injection): 0.13 percent injected dose; Urine ([2]; 10 min post injection, 10 min): 51.94 percent injected dose; Blood ([2]; 120 min post injection): 0.14 percent injected dose; Intestines ([2]; 120 min post injection): 0.21 percent injected dose; Kidneys ([2]; 120 min post injection): 0.14 percent injected dose; Liver ([2]; 120 min post injection): 3.71 percent injected dose; Stomach ([2]; 120 min post injection): 0.02 percent injected dose; Urine [2, 5]: 79.16 percent injected dose; renal excretion / clearance in words ([2]; comparison with OIH or component A, listed as Tc-2,3-bis(mercaptoacetamido)proponoate-B): more slowly cleared; also recorded: renal excretion was only slightly lower than OIH determined simultaneously; blood disappearance in words [3]: faster than Tc-DTPA, was significantly slower than Tc-2,3-bis(mercaptoacetamido)propanoate-A; blood disappearance in words ([3]; listed as component B): significantly faster than Tc-DTPA; renal excretion (urine appearance) in words [4]: significantly lower at early times, but similar to component A and OIH at 35 minutes; renal excretion (urine appearance) in words ([4]; listed as Component B): always faster than Tc-DTPA, but significantly slower than OIH or component A at early times; binding to plasma proteins (plasma proteins; 10 min): 87%; binding to plasma proteins (plasma proteins; 0.5 h): 90%
O=C(O)C1C(C(=O)O)[N]2C(=O)C[S][99Tc-]23(=[O])[S]CC(=O)[N]13 (single isomer, unassigned) [Tc--99m--2,3--(MERCAPTOACETAMIDO) SUCCINATE Component A] [Tc-99m chelate of 2,3-bis(mercaptoacetamido)succinic acid]	10.13	2.16	3.41	5.80	0.40	32.32	0.44	0.30	7.44	3.17	0.03	77.73	–
